# Results: patent publication US20080064053A1, “Genotoxicity Testing” (priority 2003, published 2008)
# Read-outs that look alike come from different tables or passages of the source.
# How the values were obtained:
# [1] = other genotoxicity tests and cancer studies; cited from earlier work
# [2] = tested on: RAD54 promoter-GFP reporter (pGen001); conditions: for GSA genotoxicity result: GenT01 yeast, overnight at 25° C., 2% DMSO diluent, no S9
# [3] = tested on: yeast strain GenT01 (FF18984); experiment: GreenScreen assay (GSA), cytotoxicity: final cell density by absorbance; conditions: for Maximum Concentration (% v/v), suggested maximum tolerable solvent concentration: solvent in GSA test samples, toxic at higher concentrations
# Procedure: The following standard protocol was followed. A 1 mM stock of the test chemical was prepared in 2% v/v aqueous DMSO, and used to make 2 identical dilution series across the microplate and a ‘control’ (see below). To achieve this, 150 microlitres of the test chemical solution were put into 2 microplate wells. Each sample was serially diluted by transferring 75 microlitres into 75 microlitres of 2% DMSO, mixing, and then taking 75 microlitres out and into the next well. This produced 9 serial dilutions of 75 microlitres each.
# 75 microlitres of the yeast suspension were added to each well of the diluted chemical: GenT01 to one series and GenC01 to the second, and to appropriate standards and controls. After the plates were filled, they were sealed using either a gas permeable membrane (Breath-easy, Diversified Biotech, USA) or a plastic lid, and then incubated without shaking, overnight at 25° C.
# Following overnight incubation, fluorescence and absorbance data were collected from the microplates. […] Absorbance was measured through a 620 nm filter in both instruments. […] Fluorescence data were divided by absorbance data to give ‘brightness units’, the measure of average GFP induction per cell. […] In this way, one can distinguish between a small number of highly fluorescent cells and a large number of weakly fluorescent cells. In order to correct for induced cellular autofluorescence and intrinsic compound fluorescence, the brightness values for the GenC01 strain were subtracted from those of GenT01. This makes visual assessment of the data more reliable.
# The cytotoxicity threshold is set at 80% of the cell density reached by the untreated control cells.
# Table 12 lists chemicals/solvents that are often used with test samples, to promote dissolution etc. […] If these chemicals are used to dissolve compound stock solutions, they should also be included in the diluent used to make the compound dilution series. […] Interference of DMSO, a free radical scavenger, in the recombinogenic properties of several oxidising agents has previously been reported.
# SOS umuC = conditions: cited from earlier work
# bacteria = conditions: cited from earlier work
# [4] = in vivo; cited from earlier work
# SOS lux = conditions: S9 −; cited from earlier work
# [5] = tested on: RNR3 regulatory element-GFP reporter; experiment: RNR3-GFP reporter microplate assay (pGenRNR3); format: cell-based, Saccharomyces cerevisiae; conditions: yeast test strain transformed with pGenRNR3
# Description: In addition to the RAD54 vectors described in the previous Examples, the inventors constructed an FF18984 reporter strain containing a replicative plasmid harbouring an RNR regulatory element. The vectors pGenRNR2 or pGenRNR3 are shown in FIGS. 24 and 25, respectively, and contain the upstream non-coding DNA sequence of the RNR2 gene or RNR3 gene fused to the yeast-enhanced Aequorea victoria GFP gene. A control FF18984 strain containing an identical plasmid except that 2 base pairs have been removed at the start of the GFP gene, such that no GFP is made, was also examined.
# In order to test the brightness of the reporter for RNR3 constructs, similar methodology was used as for RAD54 constructs, as described in the previous Examples, but using instead pGENRNR3.
# [6] = requires S9 metabolic activation
compound,measurement,setting,value
tritolyl phosphate,corresponding data from other tests,[1],no corresponding positive data
COc1cc([C@@H]2c3cc4c(cc3[C@@H](O[C@@H]3O[C@@H]5CO[C@@H](C)O[C@H]5[C@H](O)[C@H]3O)[C@H]3COC(=O)[C@H]23)OCO4)cc(OC)c1O [etoposide],GSA genotoxicity result,[2],responds
C[S+](C)[O-] [Dimethylsulfoxide],"Maximum Concentration (% v/v), suggested maximum tolerable solvent concentration",[3],5 % v/v
CCn1cc(C(=O)O)c(=O)c2ccc(C)nc21 [NALIDIXIC ACID],"GSA (M), lowest effective concentration (LEC)",[2]; S9 −,1.6e-06 M
CCCCC(CC)COC(=O)c1ccccc1C(=O)OCC(CC)CCCC (stereo not shown) [phthalic acid bis(2-ethylhexyl) ester],GSA genotoxicity result,[2],induced
CN(C)CCN(Cc1cccs1)c1ccccn1 [methapyraline],GSA genotoxicity result,[2],induced
CC(O)CCl (stereo not shown) [1-Chloro-2-propanol],"Maximum Concentration (% v/v), suggested maximum tolerable solvent concentration",[3],2 % v/v
"N.N.[Cl][Pt][Cl] [CISPLATIN, cisplatin]","GSA (M), lowest effective concentration (LEC)",[2]; S9 −,6.2e-05 M
same,"SOS UMUC ASSAY (M), LEC",SOS umuC; S9 −,9e-07 M
Nc1ccccc1 [aniline],GSA genotoxicity result,[2],negative
same,Ames test result,bacteria,not detectable
same,Ames test result,bacteria; with and without S9,negative
same,cancer data / carcinogenicity,[4],carcinogens
[N-]=[N+]=[N-] [SODIUM AZIDE],"GSA (M), lowest effective concentration (LEC)",[2]; Saccharomyces cerevisiae,1e-05 M
same,"SOS UMUC ASSAY (M), LEC",SOS umuC,0.0054 M
proflavin hemisulfate,GSA genotoxicity result,[2],positive
same,Ames test result,bacteria; [6],positive
phleomycin,GSA genotoxicity result,[2],induced
bleomycin,GSA genotoxicity result,[2],induced
Nc1cc([N+](=O)[O-])ccc1O [2-amino-4-nitrophenol],GSA genotoxicity result,[2],positive
same,Ames test result,bacteria; [6],positive
"Nc1ccc(Oc2ccc(N)cc2)cc1 [4,4-oxydianiline]",GSA genotoxicity result,[2],negative
CC[n+]1c(-c2ccccc2)c2cc(N)ccc2c2ccc(N)cc21 [ethidium bromide],Ames test result,bacteria; [6],positive
OO [HYDROGEN PEROXIDE],"SOS LUX ASSAY (M), LEC",SOS lux,5.9e-05 M
same,"GSA (M), lowest effective concentration (LEC)",[2]; Saccharomyces cerevisiae,0.002 M
C[n+]1ccc(-c2cc[n+](C)cc2)cc1 [methyl viologen],GSA genotoxicity result,[2],induced
"CCOS(C)(=O)=O [EMS, Ethyl methanesulfonate]",fluorescence induction by the reporter,[5],increases with increasing concentration
"Nc1nc[nH]n1 [3-amino-1,2,4-triazole]",GSA genotoxicity result,[2],positive
same,cancer data / carcinogenicity,[4],positive
Cc1cc2nc3ccc(N(C)C)cc3nc2cc1N.Cl [Neutral Red],GSA genotoxicity result,[2],positive
same,Ames test result,bacteria,positive
O=Cc1ccccc1 [Benzaldehyde],GSA cytotoxicity result,"[3]; GenT01 yeast, overnight at 25° C.",cytotoxic
NC(N)=S [thiourea],Ames test result,bacteria,not detectable
same,cancer data / carcinogenicity,[4],carcinogens
C1CCOC1 [Tetrahydrofuran],"Maximum Concentration (% v/v), suggested maximum tolerable solvent concentration",[3],2 % v/v
"CO[C@@]12[C@H](COC(N)=O)C3=C(C(=O)C(C)=C(N)C3=O)N1C[C@@H]1N[C@@H]12 [MITOMYCIN C, mitomycin C]","SOS LUX ASSAY (M), LEC",SOS lux,4.7e-08 M
same,"SOS UMUC ASSAY (M), LEC",SOS umuC; S9 −,1e-08 M
COc1cc2c(c(OC)c1OC)-c1ccc(OC)c(=O)cc1[C@@H](NC(C)=O)CC2 [colchicine],GSA genotoxicity result,[2],responds
C=CCc1ccc2c(c1)OCO2 [safrole],Ames test result,bacteria,not detectable
same,cancer data / carcinogenicity,[4],carcinogens
Nc1ccc2cc3ccccc3cc2c1 [2-aminoanthracene],GSA genotoxicity result,[2],negative
"c1ccc2c(c1)cc1ccc3cccc4ccc2c1c34 [BENZO[A]PYRENE, benzo[a]pyrene]",GSA genotoxicity result,[2],positive
"CNNC [1,2-dimethylhydrazine]",fluorescence induction by the reporter,[5],increases with increasing concentration
same,GSA genotoxicity result,[2],induced
CO [Methanol],"Maximum Concentration (% v/v), suggested maximum tolerable solvent concentration",[3],2 % v/v
CN/C(=N/CCSCc1nc[nH]c1C)NC#N [cimetidine],corresponding data from other tests,[1],no corresponding positive data
same,GSA genotoxicity result,[2],positive
Clc1ccc(COC(Cn2ccnc2)c2ccc(Cl)cc2Cl)cc1 (stereo not shown) [econazole],GSA genotoxicity result,[2],responds
CCO [Ethanol],"Maximum Concentration (% v/v), suggested maximum tolerable solvent concentration",[3],2 % v/v
Cc1c2ccncc2c(C)c2c1[nH]c1ccccc12 [ellipticine],GSA genotoxicity result,[2],responds
CCOC(N)=O [urethane],Ames test result,bacteria,not detectable
same,cancer data / carcinogenicity,[4],carcinogens
Nc1c2ccccc2nc2ccccc12 [9-aminoacridine],GSA genotoxicity result,[2],negative
ClC(Cl)(Cl)Cl [Carbon tetrachloride],"Maximum Concentration (% v/v), suggested maximum tolerable solvent concentration",[3],2 % v/v
CC(=O)Nc1ccc2c(c1)Cc1ccccc1-2 [2-acetamidofluorene],GSA genotoxicity result,[2],negative
